For data set [1], the system named is Caco-2 cells. The settings on record: ref Gertz et al., 2013; cited from earlier work.
Data set [2] concerns CYP3A. Kind of data set: MDZ kinetics used for initial estimates. Type of data set: biochemical, rat.
For data set [3] the following is noted: substrate related parameter; ref Kotegawa et al., 2002, Matsuda et al., 2012; cited from earlier work.
Data set [4] deals with CYP3A. The settings on record: substrate related parameter; ref Kirby et al., 2011; cited from earlier work.

The term Papp denotes the rate of passage across a membrane or cell layer, normalised by area and donor concentration. Broadly, the Km is the substrate concentration at which the rate is half of its maximum.

Turning to `CC[C@H]1OC(=O)[C@H](C)[C@@H](O[C@H]2C[C@@](C)(OC)[C@@H](O)[C@H](C)O2)[C@H](C)[C@@H](O[C@@H]2O[C@H](C)C[C@H](N(C)C)[C@H]2O)[C@](C)(O)C[C@@H](C)C(=O)[C@H](C)[C@@H](O)[C@]1(C)O` [ERY, erythromycin], the Papp in data set [1] was 0.44 ×10⁻⁶ cm/s.

Regarding `Cc1ncc2n1-c1ccc(Cl)cc1C(c1ccccc1F)=NC2` [MDZ, midazolam], the “kcat (k3)” value in data set [2] (initial estimate from experimental samples without inhibitor) is reported as “approx. 10 min^−1”. Besides, the Km in data set [2] (rat, liver microsomes) is 10 µM. In data set [3], the “Fg (fraction escaping gut)” value is 0.75. In addition, the “fm (fraction metabolized by CYP3A)” value in data set [4] is on record as 0.93. Further, the Papp in data set [1] is 32.4 ×10⁻⁶ cm/s.

Source of the values: paper PMC5742070 (Xenobiotica; the fate of foreign compounds in biological …, 2020).
